Activity calls are given as the source filed them.
Legend:
[1] = target: Serine/threonine-protein phosphatase PP1-alpha catalytic subunit (Homo sapiens, UniProt P62136); assay: PP1 phosphatase inhibitors, dose response, biochemical, fluorescence (AID 2394)
[2] = target: Serine/threonine-protein phosphatase (Homo sapiens, UniProt Q9BPW0); assay: PP5 phosphatase inhibitors, dose response, biochemical, fluorescence (AID 2395)
[3] = target: T1, Mannose-6-phosphate isomerase (Homo sapiens, UniProt P34949); assay: human PMI inhibitors, high substrate, primary screen, biochemical, fluorescence intensity, high mannose 6-phosphate (AID 1220)
T1 sequence (P34949 whole entry): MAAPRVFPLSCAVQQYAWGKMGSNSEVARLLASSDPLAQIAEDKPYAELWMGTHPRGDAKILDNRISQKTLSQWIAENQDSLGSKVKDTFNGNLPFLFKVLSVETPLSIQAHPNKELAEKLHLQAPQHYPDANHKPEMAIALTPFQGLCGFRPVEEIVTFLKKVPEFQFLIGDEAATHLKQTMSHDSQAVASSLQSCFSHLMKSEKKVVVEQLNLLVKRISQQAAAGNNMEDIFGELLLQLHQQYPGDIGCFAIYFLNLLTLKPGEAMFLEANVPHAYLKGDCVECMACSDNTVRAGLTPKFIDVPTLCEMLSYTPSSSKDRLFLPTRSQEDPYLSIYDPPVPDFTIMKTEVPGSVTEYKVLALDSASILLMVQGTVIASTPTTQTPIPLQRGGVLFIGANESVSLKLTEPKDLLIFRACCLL

[4] = Counterscreen for IDE inhibitors: Luminescence-based cell-based high throughput dose response assay to identify compounds that are cytotoxic to HEK cells. [Related pubchem assays: 434962 (Primary screen (IDE inhibitors in singlicate)), 449730 (Counterscreen (Cytotoxicity in triplicate)), 435028 (Confirmation (IDE inhibitors in triplicate)) …; type: functional; details: HEK293
Insulin-degrading enzyme = target: T2, Insulin-degrading enzyme (Homo sapiens, UniProt P14735); assay: Dose Response: Fluorescence polarization-based cell-based high throughput dose response assay for inhibitors of insulin-degrading enzyme (IDE). [Related pubchem assays: 434962 (Primary screen (IDE inhibitors in singlicate)), 449730 (Counterscreen (Cytotoxicity in triplicate)), 435028 (Confirmation (IDE inhibitors in triplicate)), 434984 (Summary …; type: functional
T2 sequence (P14735 whole entry): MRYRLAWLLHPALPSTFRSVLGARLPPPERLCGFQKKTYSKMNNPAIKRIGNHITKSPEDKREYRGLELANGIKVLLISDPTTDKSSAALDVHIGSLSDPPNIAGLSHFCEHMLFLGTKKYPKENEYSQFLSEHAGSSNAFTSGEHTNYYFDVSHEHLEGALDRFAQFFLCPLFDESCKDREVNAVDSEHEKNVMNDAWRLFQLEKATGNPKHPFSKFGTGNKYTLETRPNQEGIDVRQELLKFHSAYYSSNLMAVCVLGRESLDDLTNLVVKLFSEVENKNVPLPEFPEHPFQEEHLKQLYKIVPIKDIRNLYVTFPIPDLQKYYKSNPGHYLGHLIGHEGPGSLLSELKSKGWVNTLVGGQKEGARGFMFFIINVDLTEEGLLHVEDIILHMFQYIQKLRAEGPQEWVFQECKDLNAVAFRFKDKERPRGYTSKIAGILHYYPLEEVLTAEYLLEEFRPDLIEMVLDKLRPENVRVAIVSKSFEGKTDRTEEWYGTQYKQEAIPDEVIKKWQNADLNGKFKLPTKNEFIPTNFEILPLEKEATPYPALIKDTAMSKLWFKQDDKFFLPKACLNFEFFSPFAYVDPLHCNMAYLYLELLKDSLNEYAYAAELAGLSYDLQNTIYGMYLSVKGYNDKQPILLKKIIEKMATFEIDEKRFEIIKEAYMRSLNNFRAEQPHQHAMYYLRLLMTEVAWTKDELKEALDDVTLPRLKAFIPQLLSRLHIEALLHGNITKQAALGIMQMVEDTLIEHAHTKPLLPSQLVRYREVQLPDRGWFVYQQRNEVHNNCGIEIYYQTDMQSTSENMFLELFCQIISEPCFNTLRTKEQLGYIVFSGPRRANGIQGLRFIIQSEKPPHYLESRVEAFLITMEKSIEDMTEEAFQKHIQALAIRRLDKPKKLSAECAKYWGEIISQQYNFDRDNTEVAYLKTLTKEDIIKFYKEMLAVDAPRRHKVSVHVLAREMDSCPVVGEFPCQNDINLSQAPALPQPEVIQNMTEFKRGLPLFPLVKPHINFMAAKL

[5] = Luminescence-based cell-based high throughput dose response assay to identify activators of the DAF-12 from the parasite S. stercoralis (ssDAF-12).; type: functional
[6] = target: T3, Oxysterols receptor LXR-beta (Homo sapiens, UniProt P55055); type: functional, cell-based;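 also: agonist activity at LXR measured by a cell-based luminescence readout across a dose range, run as a counterscreen for daf-12 agonists; HEK293 cells with Gal4-LXR fusion and GAL4-driven luciferase reporter; potency for activation of Gal4-LXR reporter so compounds are agonists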
T3 sequence (P55055 whole entry): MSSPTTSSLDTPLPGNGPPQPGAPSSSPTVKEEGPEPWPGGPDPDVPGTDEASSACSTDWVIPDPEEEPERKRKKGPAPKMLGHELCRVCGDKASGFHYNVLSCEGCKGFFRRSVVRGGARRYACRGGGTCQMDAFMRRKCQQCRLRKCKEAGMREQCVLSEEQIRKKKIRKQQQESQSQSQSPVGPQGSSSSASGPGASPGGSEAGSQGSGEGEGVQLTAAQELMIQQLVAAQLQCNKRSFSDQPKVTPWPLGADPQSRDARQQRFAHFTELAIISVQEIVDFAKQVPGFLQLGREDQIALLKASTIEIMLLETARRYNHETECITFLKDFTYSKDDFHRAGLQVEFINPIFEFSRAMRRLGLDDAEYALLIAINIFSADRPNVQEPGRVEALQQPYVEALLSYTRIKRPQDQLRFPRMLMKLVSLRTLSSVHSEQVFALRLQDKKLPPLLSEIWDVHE

Sequence of Serine/threonine-protein phosphatase (Q9BPW0 whole entry): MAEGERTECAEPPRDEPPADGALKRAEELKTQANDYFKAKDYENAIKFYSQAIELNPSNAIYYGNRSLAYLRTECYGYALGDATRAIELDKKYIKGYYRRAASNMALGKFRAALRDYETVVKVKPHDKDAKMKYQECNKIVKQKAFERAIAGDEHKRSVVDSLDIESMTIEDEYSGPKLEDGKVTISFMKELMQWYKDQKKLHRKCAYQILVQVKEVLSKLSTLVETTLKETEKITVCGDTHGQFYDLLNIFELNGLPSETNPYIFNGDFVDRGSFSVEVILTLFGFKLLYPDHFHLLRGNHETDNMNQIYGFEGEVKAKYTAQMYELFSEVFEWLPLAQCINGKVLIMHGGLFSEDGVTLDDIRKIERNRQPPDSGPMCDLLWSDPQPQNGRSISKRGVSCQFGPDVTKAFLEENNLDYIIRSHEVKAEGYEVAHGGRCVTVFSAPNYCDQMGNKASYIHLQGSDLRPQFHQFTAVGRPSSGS
Sequence of Serine/threonine-protein phosphatase PP1-alpha catalytic subunit (P62136 whole entry): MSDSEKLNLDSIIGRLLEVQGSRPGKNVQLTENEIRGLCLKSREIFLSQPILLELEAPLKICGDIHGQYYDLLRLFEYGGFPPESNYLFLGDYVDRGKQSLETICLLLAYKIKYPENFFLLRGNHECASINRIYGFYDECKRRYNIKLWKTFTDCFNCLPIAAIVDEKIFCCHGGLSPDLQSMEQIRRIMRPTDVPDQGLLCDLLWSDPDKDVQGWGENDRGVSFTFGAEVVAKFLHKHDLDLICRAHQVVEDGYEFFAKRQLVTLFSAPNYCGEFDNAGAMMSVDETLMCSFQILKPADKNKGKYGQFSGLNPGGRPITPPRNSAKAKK

IC50 [1] | IC50 [2] | IC50 [3] | Compound | IC50 [4] | IC50 (Insulin-degrading enzyme) | IC50 [5] | EC50 [6]
> 67 µM (not active) | 4.01 µM (active) | > 50 µM (not active) | COc1ccc(/C=N/Nc2cc(N(C)C)nc(N(C)C)n2)cc1 |  |  |  | 
 |  |  | C/C(=N\c1cccc(C)c1)c1sc2ccccc2c1O | 43.1 µM (not active) | 22.7 µM (not active) | > 67.6 µM (inactive) | > 67.6 µM (inactive)

Source: ChEMBL document CHEMBL1201862, “PubChem BioAssay data set” (2004)
